According to ChEMBL document CHEMBL1201862, “PubChem BioAssay data set” (2004):
Active and inactive are the calls of the source.

Columns and labels:
[1] = biological target: T1, Histone-lysine N-methyltransferase NSD2 (Homo sapiens, UniProt O96028); format: biochemical
T1 sequence (O96028 whole entry): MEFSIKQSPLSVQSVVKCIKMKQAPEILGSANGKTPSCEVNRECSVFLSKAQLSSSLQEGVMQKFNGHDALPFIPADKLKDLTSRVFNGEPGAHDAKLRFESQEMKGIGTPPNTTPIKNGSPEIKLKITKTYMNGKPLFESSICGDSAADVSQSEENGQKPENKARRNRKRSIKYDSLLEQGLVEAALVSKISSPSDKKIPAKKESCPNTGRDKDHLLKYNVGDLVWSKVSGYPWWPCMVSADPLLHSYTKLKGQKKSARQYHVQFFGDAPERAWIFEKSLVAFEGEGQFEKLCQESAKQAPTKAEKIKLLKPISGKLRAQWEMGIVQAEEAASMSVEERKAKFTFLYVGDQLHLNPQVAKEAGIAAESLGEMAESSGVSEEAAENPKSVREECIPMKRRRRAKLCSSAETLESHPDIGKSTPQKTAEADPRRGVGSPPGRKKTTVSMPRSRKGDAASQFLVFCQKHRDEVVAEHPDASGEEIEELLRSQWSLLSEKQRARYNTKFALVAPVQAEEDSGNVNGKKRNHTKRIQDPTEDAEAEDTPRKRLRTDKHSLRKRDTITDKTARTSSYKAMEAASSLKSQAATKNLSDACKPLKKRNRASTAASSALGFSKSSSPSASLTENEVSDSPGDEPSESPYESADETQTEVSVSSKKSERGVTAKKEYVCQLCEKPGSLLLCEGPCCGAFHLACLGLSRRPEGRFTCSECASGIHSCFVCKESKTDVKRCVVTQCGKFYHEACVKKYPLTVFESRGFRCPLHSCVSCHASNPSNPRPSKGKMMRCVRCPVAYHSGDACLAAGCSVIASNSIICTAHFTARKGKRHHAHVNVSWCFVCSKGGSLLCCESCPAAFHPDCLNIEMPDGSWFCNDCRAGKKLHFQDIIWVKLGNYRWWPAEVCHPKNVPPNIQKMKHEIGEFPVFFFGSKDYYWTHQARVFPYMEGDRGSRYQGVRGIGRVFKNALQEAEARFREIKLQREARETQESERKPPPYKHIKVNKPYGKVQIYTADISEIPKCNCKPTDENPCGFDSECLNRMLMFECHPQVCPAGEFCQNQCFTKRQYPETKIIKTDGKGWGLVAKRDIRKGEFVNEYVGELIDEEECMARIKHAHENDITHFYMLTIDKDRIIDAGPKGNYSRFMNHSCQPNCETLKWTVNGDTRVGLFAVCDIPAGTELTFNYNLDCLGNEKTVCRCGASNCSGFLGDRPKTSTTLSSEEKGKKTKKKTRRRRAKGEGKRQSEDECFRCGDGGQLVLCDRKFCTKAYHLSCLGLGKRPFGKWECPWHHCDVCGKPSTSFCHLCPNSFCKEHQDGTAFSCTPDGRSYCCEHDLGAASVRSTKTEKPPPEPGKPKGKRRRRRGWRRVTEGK

[2] = biological target: Mitogen-activated protein kinase 10 (Homo sapiens, UniProt P53779); test: Dose response biochemical screening assay for inhibitors of c-Jun N-Terminal Kinase 3 (JNK3). [Related pubchem assays: 746 ]
[3] = biological target: T2, E3 ubiquitin-protein ligase XIAP (Homo sapiens, UniProt P98170); test: Counter Screen using XIAP-Bir3 for Chemical Antagonists of Bir1/2 domains of IAP-family anti-apoptotic proteins. [Related pubchem assays (depositor defined):AID1018, AID1449, AID1514, AID1638, AID1749, AID1750, AID488957, AID488963]
[4] = biological target: T2, E3 ubiquitin-protein ligase XIAP; test: small molecules displacing peptide from XIAP – biochemical, IAP family, fluorescence polarization (AID 1018); format: functional
[5] = biological target: E3 ubiquitin-protein ligase Mdm2 (Homo sapiens, UniProt Q00987); test: MDM2-luc reporter signal enhancers, multi-concentration potency testing, MDM2 ubiquitin-protein ligase inhibitor program, whole-cell format, luminescence detection, 384-well microplate (AID 1394); format: functional;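 note: MDM2 E3 inhibitors raise luminescence so EC50 is for signal enhancement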
[6] = M. tuberculosis H37Rv growth inhibitors, H37Rv strain (AID 1626); format: functional
[7] = biological target: T3, Heat shock factor protein 1 (Mus musculus, UniProt P38532); test: enhancement of HSF1-driven luciferase signal – cell-based, NIH3T3, luminescence, dose retest, confirmation (AID 435004); format: functional;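 note: stress induced by proteasome inhibitor MG132 added 30 min after compound; luciferase reporter driven by HSF1 response element in NIH3T3 cells; actives raise luminescence as potentiators of the MG132 stress response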
T3 sequence (P38532 whole entry): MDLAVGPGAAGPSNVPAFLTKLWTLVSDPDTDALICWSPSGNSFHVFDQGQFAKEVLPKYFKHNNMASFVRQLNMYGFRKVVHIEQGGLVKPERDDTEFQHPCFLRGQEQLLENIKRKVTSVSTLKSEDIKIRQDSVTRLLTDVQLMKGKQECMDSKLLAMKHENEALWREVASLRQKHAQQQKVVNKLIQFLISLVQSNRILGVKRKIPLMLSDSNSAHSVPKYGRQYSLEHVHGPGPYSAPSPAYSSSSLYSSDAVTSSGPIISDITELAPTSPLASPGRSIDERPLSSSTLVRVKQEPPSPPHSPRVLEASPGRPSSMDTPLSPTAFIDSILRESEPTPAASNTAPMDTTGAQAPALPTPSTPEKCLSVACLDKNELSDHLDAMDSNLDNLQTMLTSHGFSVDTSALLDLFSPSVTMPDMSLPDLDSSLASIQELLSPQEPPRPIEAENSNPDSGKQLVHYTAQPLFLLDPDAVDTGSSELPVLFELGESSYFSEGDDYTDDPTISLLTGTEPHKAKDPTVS

Mucolipin-3 = biological target: T4, Mucolipin-3 (Homo sapiens, UniProt Q8TDD5); test: Dose response cell-based high-throughput screening assay for agonists of the transient receptor potential channel ML3 (TRPML3). [Related pubchem assays: 1526, 1424, 1448 ]; format: functional
T4 sequence (Q8TDD5 whole entry): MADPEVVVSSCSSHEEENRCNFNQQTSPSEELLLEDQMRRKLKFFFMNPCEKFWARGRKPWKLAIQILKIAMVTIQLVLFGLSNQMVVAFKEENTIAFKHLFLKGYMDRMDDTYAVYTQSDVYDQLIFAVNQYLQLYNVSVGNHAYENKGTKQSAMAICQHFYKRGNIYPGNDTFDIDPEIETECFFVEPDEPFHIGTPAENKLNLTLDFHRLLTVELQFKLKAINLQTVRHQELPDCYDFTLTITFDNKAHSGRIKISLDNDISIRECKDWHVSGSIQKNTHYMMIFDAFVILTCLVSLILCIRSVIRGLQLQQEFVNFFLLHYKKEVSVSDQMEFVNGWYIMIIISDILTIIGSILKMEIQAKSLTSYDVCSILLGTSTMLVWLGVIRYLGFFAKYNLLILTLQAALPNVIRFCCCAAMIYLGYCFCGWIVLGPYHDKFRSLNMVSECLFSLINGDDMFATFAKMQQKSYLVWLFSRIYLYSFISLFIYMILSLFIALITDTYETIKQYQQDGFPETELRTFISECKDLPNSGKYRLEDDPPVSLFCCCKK

Ion channel NompC = Ion channel NompC (Danio rerio, UniProt Q7T1G6); test: Fluorescence counterscreen assay for TRPML3 agonists: dose response cell-based high-throughput screening assay to identify agonists of the transient receptor potential channel N1 (TRPN1). [Related pubchem assays: 1526, 1424, 1448 ]; format: functional
[8] = biological target: T5, Endoribonuclease toxin MazF (Escherichia coli K-12, UniProt P0AE70); test: substrate-only fluorescence increase artefacts – biochemical, single-stranded RNase substrate, counter-screen for MazEF activator project, dose response (AID 588502); format: functional
T5 sequence (P0AE70 whole entry): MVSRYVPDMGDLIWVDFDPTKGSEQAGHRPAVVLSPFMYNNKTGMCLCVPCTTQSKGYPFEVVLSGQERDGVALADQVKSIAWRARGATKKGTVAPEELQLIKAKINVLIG

[9] = biological target: T5, Endoribonuclease toxin MazF; test: activation of MazEF endoribonuclease cleavage – biochemical, fluorescence, single-stranded RNA substrate, uHTS hits, dose response (AID 588481); format: functional
[10] = biological target: T6, Mannose-6-phosphate isomerase (Homo sapiens, UniProt P34949); test: MPI inhibition at elevated mannose 6-phosphate – biochemical, fluorescence intensity, high mannose 6-phosphate, primary screen (AID 1220)
T6 sequence (P34949 whole entry): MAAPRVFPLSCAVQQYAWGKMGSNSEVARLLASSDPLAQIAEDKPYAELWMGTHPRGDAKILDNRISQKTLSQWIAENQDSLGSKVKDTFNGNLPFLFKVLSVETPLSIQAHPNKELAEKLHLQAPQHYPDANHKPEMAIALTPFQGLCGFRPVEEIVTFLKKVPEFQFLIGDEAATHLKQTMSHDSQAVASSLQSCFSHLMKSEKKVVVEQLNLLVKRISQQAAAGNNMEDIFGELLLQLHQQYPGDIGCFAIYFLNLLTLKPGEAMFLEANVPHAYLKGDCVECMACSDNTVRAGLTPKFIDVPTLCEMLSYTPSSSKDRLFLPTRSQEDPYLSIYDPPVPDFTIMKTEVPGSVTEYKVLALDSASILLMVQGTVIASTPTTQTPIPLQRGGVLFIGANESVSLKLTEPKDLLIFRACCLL

[11] = biological target: T7, COUP transcription factor 2 (Homo sapiens, UniProt P24468); test: Luminescence-based cell-based high throughput dose response assay to identify inhibitors of COUP-TFII (NR2F2).; format: functional;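 note: HEK293 cells transiently cotransfected with COUP-TFII expression vector and reporter; luciferase reporter luminescence driven by COUP-TFII from the pX2-168 reporter plasmid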
T7 sequence (P24468 whole entry): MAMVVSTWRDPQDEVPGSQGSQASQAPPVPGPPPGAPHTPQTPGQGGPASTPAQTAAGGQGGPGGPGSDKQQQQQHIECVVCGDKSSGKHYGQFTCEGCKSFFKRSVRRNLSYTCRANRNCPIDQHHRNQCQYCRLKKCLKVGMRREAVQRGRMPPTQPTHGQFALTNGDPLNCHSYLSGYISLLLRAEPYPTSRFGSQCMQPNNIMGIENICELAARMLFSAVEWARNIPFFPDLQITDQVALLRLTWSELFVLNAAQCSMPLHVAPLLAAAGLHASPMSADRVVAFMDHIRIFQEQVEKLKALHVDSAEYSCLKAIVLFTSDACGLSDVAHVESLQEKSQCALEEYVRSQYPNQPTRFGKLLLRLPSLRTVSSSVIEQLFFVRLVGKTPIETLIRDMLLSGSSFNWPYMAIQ

Cytochrome P450 2C9 = Cytochrome P450 2C9 (Homo sapiens, UniProt P11712)
[12] = P. falciparum Dd2 growth inhibitors, dose response, SYBR Green, cherry-picked samples (AID 1159567); format: functional, cell-based
[13] = Dd2 parasite growth inhibition in erythrocytes – SYBR Green, dry powder samples, set 9, dose response (AID 1159568); format: functional, cell-based
[14] = toxicity to human hepatoma HepG2 cells – cell-based, cherry-picked samples, cytotoxicity control, dose response (AID 1159577); format: functional
[15] = Luminescence Cell-Based Dose Response HTS to Identify Activators of Luciferase Translation or Activity in H4 […] Cells. [Related pubchem assays: 1829 (Project Summary), 1814 (Primary HTS)]; format: functional
H4 = test: Luminescence Cell-Based Dose Response HTS to Identify Activators of 5'UTR Stem-Loop Driven Prion Protein mRNA Translation in H4 Neuroglioblastoma Cells. [Related pubchem assays: 1829 (Project Summary), 1814 (Primary HTS)]; format: functional; conditions: Homo sapiens
[16] = Luminescence Cell-Based Dose Confirmation HTS to Identify Activators of 5'UTR Stem-Loop Driven Alpha-Synuclein mRNA Translation in H4 Neuroglioblastoma Cells. [Related pubchem assays: 1829 (Project Summary), 1814 (Primary HTS)]; format: functional
[17] = biological target: FAD-linked sulfhydryl oxidase ALR (Homo sapiens, UniProt P55789); test: ALR-catalysed DTT oxidation blockers – biochemical, H2O2 detection, luminescence, cherry-pick, dose response (AID 493248)
FAD-linked sulfhydryl oxidase ALR, sequence (P55789 whole entry): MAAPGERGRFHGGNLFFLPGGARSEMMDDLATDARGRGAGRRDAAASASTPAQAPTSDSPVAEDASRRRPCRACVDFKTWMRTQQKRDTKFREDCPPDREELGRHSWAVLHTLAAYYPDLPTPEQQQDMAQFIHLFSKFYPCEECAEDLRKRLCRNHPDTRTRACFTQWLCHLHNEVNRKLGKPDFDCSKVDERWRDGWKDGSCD

Mitogen-activated protein kinase 10, sequence (P53779 whole entry): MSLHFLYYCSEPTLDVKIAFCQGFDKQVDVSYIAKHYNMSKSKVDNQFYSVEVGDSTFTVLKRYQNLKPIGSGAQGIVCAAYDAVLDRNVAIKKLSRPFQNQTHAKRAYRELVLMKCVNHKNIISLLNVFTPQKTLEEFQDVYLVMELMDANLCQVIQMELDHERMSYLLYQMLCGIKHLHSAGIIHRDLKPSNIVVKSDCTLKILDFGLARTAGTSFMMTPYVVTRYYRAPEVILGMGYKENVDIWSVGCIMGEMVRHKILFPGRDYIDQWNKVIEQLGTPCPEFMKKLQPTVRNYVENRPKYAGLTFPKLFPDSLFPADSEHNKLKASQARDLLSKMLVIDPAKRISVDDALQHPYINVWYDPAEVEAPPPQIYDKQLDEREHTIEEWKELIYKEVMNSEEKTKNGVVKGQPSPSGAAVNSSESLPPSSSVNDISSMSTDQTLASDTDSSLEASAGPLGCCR
T2 sequence (P98170 whole entry): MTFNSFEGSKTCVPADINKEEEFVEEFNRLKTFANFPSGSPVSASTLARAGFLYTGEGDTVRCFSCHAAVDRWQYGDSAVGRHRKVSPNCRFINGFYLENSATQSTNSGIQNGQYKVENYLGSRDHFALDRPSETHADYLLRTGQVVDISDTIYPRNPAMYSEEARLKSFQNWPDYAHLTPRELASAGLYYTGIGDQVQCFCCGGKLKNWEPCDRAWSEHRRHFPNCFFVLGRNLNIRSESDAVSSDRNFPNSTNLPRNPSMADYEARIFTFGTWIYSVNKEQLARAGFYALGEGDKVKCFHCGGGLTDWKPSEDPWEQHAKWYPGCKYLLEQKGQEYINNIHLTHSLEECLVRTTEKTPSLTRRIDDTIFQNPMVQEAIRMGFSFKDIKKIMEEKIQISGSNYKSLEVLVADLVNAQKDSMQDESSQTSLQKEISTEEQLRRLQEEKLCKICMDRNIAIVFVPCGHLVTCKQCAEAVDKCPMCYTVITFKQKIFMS
E3 ubiquitin-protein ligase Mdm2, sequence (Q00987 whole entry): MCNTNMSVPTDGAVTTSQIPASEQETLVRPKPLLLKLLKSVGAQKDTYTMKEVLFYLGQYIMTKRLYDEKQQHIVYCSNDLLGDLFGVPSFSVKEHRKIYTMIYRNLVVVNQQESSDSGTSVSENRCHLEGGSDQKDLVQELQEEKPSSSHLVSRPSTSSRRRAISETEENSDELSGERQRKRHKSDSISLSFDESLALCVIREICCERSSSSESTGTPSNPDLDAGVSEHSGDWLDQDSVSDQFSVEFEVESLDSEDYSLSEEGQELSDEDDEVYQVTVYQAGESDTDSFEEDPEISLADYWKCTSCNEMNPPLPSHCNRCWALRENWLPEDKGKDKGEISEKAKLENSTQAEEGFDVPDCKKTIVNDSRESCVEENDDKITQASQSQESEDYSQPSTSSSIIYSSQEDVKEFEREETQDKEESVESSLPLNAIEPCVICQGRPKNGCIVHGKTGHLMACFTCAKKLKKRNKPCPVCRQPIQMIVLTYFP
Cytochrome P450 2C9, sequence (P11712 whole entry): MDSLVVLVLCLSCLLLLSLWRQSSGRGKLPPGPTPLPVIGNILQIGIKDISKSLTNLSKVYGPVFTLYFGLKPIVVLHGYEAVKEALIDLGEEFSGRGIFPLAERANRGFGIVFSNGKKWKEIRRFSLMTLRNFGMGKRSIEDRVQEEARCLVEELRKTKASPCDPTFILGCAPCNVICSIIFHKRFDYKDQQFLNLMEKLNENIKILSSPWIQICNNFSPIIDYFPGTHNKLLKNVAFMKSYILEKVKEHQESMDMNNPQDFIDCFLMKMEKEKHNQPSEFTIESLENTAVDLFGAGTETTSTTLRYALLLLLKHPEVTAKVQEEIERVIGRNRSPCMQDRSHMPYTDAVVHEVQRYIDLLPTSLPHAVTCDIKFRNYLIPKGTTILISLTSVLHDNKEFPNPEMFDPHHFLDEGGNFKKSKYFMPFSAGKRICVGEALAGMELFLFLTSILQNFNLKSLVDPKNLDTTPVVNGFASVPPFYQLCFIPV
Ion channel NompC, sequence (Q7T1G6 whole entry): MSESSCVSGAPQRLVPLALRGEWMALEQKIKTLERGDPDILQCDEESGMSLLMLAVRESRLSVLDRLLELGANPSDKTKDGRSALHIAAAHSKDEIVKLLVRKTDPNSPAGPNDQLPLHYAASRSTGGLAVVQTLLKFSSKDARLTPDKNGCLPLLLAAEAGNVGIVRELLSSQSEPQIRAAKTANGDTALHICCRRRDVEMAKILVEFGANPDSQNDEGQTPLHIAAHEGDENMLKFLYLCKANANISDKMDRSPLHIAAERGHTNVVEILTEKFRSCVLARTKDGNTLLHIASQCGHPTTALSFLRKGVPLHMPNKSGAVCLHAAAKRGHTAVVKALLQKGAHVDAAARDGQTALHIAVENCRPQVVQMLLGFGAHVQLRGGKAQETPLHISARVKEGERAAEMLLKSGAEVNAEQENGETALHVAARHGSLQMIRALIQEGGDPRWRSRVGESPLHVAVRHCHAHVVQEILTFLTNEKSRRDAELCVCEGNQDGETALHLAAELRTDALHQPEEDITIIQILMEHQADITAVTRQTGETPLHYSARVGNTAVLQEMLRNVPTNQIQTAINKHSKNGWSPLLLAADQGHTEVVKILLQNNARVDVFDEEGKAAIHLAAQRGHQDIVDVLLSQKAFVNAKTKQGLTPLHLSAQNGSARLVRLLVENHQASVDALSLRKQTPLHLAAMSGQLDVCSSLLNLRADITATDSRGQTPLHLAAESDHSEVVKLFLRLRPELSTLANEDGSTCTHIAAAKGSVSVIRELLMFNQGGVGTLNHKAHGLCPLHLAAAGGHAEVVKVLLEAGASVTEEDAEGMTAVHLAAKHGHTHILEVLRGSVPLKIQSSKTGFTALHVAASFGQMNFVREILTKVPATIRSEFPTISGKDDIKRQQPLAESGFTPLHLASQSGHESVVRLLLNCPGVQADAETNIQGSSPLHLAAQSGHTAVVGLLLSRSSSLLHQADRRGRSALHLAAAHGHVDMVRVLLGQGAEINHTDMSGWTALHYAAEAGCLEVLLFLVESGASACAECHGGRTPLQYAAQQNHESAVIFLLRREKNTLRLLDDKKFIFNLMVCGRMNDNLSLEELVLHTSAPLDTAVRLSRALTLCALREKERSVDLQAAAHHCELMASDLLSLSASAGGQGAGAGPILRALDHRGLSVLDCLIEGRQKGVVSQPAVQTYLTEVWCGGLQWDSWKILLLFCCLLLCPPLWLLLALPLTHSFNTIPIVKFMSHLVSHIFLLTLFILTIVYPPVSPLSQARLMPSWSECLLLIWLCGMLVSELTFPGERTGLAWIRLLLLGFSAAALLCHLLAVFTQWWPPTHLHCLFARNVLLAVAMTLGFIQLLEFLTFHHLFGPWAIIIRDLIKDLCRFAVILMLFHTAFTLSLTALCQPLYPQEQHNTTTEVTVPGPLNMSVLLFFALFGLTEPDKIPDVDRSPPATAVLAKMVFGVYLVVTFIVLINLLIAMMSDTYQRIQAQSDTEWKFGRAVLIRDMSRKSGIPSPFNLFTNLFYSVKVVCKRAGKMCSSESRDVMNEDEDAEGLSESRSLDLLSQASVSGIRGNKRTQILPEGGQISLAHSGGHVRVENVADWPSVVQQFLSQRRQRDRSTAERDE

CNCc1ccccc1Sc1cccc(O)c1
AC50 [1]: > 20 µM (inactive)

CN1C=CC(=C2C(=O)c3ccccc3C2=O)C=C1
IC50 [2]: 28.5 µM (not active)

CCOC(=O)c1[nH]nc2ccccc12
IC50 [2]: > 31 µM (not active)

N#C/C(=C\c1ccc(-c2ccc(C(=O)O)cc2)o1)C(=O)NCC1CCCO1 (stereo not given)
AC50 [1]: > 20 µM (inactive)

CCSc1nnc(NC(=O)c2cc(-c3ccc(C)c(C)c3O)[nH]n2)s1
IC50 [3]: > 100 µM (inactive)
IC50 [4]: > 100 µM (not active)

O=C(Nc1ccc(-c2csnn2)cc1)C1CC1
EC50 [5]: 3.55 µM (not active)
IC50 [6]: > 100 µM (active)

Nc1cnn(Cc2ccc(F)cc2)c1
IC50 [6]: > 100 µM (active)
EC50 [7]: > 260 µM (inactive)

CC(SCc1ccccc1)C(=O)NCc1ccccn1 (stereo not given)
IC50 [3]: > 100 µM (inactive)
IC50 [4]: > 100 µM (not active)

COc1ccc(C(=O)Nc2ccc(S(=O)(=O)N3CCCCC3C)cc2)c(OC)c1OC (stereo not given)
EC50 (Mucolipin-3): 1.78 µM (active)
EC50 (Ion channel NompC): > 29.9 µM (not active)

Cc1cc(NC(=O)Cc2csc(-c3ccccc3)n2)ccc1Br
IC50 [3]: > 100 µM (inactive)
IC50 [4]: > 100 µM (not active)

CCN(CC)CCCN(Cc1cc2cc3c(cc2nc1O)OCO3)C(S)=NCc1ccco1
AC50 [1]: > 20 µM (inactive)

CCN1C(=O)C(=Cc2cc(C)n(C3CC3)c2C)C(=O)N(CC)C1=S
EC50 [8]: > 99 µM (inactive)
EC50 [9]: 44.4 µM (inactive)
IC50 [10]: > 50 µM (not active)

CC(C)N(C(=O)Nc1ccc2nccnc2c1)C(C)C
IC50 [10]: > 50 µM (not active)

COc1ccccc1OCC(=O)Nc1cc(S(=O)(=O)N2CCCCC2)ccc1N1CCCCC1
EC50 [5]: 6.4 µM (not active)

O=c1c2ccccc2oc2cc(C#CC3(O)CCCCC3)ccc12
IC50 [11]: > 9.49 µM (active)

Oc1[nH]c2ccccc2c1/C=N/c1nccs1
AC50 (Cytochrome P450 2C9): 25.1 µM (inconclusive)
IC50 [2]: 46.6 µM (not active)

N#Cc1ccc(-c2ccc([C@@H]3[C@@H]4CN(C(=O)Nc5ccc6c(c5)OCO6)C[C@H]3N4)cc2)cc1
AC50 [12]: 3.41 µM (active)
AC50 [13]: 6.54 µM (active)

COc1cccc(-c2ccc3c(c2)[C@@H]2[C@@H](CCN2C(=O)NC2CCCCC2)[C@@H](CO)N3C)c1
AC50 [12]: 2.88 µM (active)
AC50 [14]: 41.4 µM (active)

C[C@@H]1CCCCO[C@@H](CN(C)Cc2ccc(Cl)c(Cl)c2)[C@@H](C)CN([C@@H](C)CO)C(=O)c2cc(NS(=O)(=O)c3cccs3)ccc2O1
AC50 [13]: 1.54 µM (active)

C[n+]1c2n(c3ccccc31)N=C(c1ccccc1)CS2
IC50 [11]: 13.8 µM (inactive)
EC50 [15]: > 120 µM (not active)
EC50 (H4): > 120 µM (not active)
EC50 [16]: 16 µM (active)
AC50 [17]: 1.14 µM (active)
